Measured values: patent publication US6310095A, “Inhibitors of protein isoprenyl transferases” (University of Pittsburgh, priority 1998, dated 2001)
Where a name gives a salt, the structure may show the parent alone. Read-outs that look alike come from different tables or passages of the source. One block for each compound: values may come before it.

Target: T1, protein farnesyltransferase (Rattus norvegicus, UniProt Q02293+Q04631)
T1 construct: Rat brain protein farnesyltransferase activity is measured; from tissue; host or cells: rat brain; purified according to Reiss et al., Cell 62:81-88 (1990), steps one through three
Assay: in vitro inhibition of protein farnesyltransferase (scintillation proximity assay, biotin-K Ras B fragment)
Format: biochemical
Settings: for inhibition at 1 µM / inhibition at 0.1 µM / inhibition at 0.01 µM: read-out: % inhibition of farnesyltransferase; for inhibition at 10 µM: at 1 × 10^-5 M
Excerpt: The ability of the compounds of the invention to inhibit protein farnesyltransferase or protein geranylgeranyltransferase can be measured according to the method of Moores, et al., J. Biol. Chem. 266: 14603 (1991) or the method of Vogt, et al., J. Biol. Chem. 270:660-664 (1995). In addition, procedures for determination of the inhibition of farnesylation of the oncogene protein Ras are described by Goldstein, et al., J. Biol. Chem., 266:15575-15578 (1991) and by Singh in U.S. Pat. No. 5,245,061.
In addition, in vitro inhibition of protein farnesyltransferase may be measured by the following procedure. Rat brain protein farnesyltransferase activity is measured using an Amersham Life Science commercial scintillation proximity assay kit and substituting a biotin-K Ras B fragment (biotin-[…]CO2 H), 0.1 mM final concentration, for the biotin-lamin substrate provided by Amersham. The enzyme is purified according to Reiss, Y., et al., Cell, 62: 81-88 (1990), utilizing steps one through three.
The % inhibition of protein farnesyltransferase was determined for representative compounds of the invention.

SMILES: CSCC[C@H](NC(=O)c1ccc(COCc2ccc(-c3ccc(C(C)=O)cc3)o2)cc1-c1ccccc1C)C(=O)[O-].[Li+] [Example 449]
% inhibition of farnesyltransferase (at 1 × 10^-7 M): 91%

SMILES: CSCC[C@H](NC(=O)c1ccc(COCc2cccs2)cc1-c1ccccc1C)C(=O)[O-].[Li+] [Example 273]
% inhibition of farnesyltransferase (at 1 × 10^-6 M): 96%

SMILES: CSCC[C@H](NC(=O)c1ccc(CCc2ccccc2-c2ccccc2)cc1-c1ccccc1C)C(=O)[O-].[Li+] [Example 452]
% inhibition of farnesyltransferase (at 1 × 10^-6 M): 96%

SMILES: CSCC[C@H](NC(=O)c1ccc(CNC(C)(C)Cc2ccccc2)cc1-c1ccccc1C)C(=O)O [Example 307]
% inhibition of farnesyltransferase (at 1 × 10^-6 M): 82%

SMILES: CSCC[C@H](NC(=O)c1ccc(CNC(CC2CCCCC2)CC2CCCCC2)cc1-c1ccccc1C)C(=O)O [Example 524, N-[4-N-(1,3-dicyclohexylpropan-2-yl)aminomethyl-2-(2-methylphenyl)benzoyl]methionine lithium salt]
inhibition at 0.1 µM (at 1 × 10^-7 M): 99%

SMILES: CSCC[C@H](NC(=O)c1ccc(CSC2CCCCC2)cc1-c1ccccc1C)C(=O)[O-].[Li+] [Example 550]
% inhibition of farnesyltransferase (at 1 × 10^-6 M): 96%

SMILES: CSCC[C@H](NC(=O)c1ccc(/C=C/c2cncnc2)cc1-c1ccccc1C)C(=O)O [Example 494]
% inhibition of farnesyltransferase (at 1 × 10^-6 M): 96%

SMILES: CSCC[C@H](NC(=O)c1ccc(NCCO)cc1-c1ccccc1)C(=O)O [Example 502, N-[4-N-2-hydroxyethylamino-2-phenylbenzoyl]methionine]
inhibition at 1 µM (at 1 × 10^-6 M): 24%

SMILES: CSCC[C@H](NC(=O)c1ccc(COCCc2ccc(Cl)cc2)cc1-c1ccccc1C)C(=O)[O-].[Li+] [Example 590]
% inhibition of farnesyltransferase (at 1 × 10^-7 M): 95%

SMILES: CSCC[C@H](NC(=O)c1ccc(CN(C(C)C)C2(Cc3ccccc3)CC2)cc1-c1ccccc1C)C(=O)O [Example 325]
% inhibition of farnesyltransferase (at 1 × 10^-6 M): 99%

SMILES: CSCC[C@H](NC(=O)c1ccc(CN(Cc2ccccc2)c2ccccc2SC)cc1-c1ccccc1C)C(=O)O [Example 850, N-[4-(N-benzyl-N-(2-methylthiophenyl)aminomethyl)-2-(2-methylphenyl)benzoyl]methionine lithium salt]
inhibition at 1 µM: 90%

SMILES: CSCC[C@H](NC(=O)c1ccc(COCc2cnc(C(C)(C)C)s2)cc1-c1ccccc1C)C(=O)[O-].[Li+] [Example 895]
% inhibition of farnesyltransferase (at 1 × 10^-7 M): 92%

SMILES: CSCC[C@H](NC(=O)c1ccc(CC(Cc2ccccc2)c2ccccc2)cc1-c1ccccc1C)C(=O)[O-].[Li+] (stereo partly shown) [Example 572]
% inhibition of farnesyltransferase (at 1 × 10^-6 M): 91%

SMILES: CSCC[C@H](NC(=O)c1ccc(CN2C(=O)OC[C@@H]2CC2CCCCC2)cc1-c1ccccc1C)C(=O)O [Example 349]
% inhibition of farnesyltransferase (at 1 × 10^-6 M): 99%

SMILES: CSCC[C@H](NC(=O)c1ccc(OCCCC2CCCCC2)cc1-c1ccccc1C)C(=O)O [Example 564]
% inhibition of farnesyltransferase (at 1 × 10^-6 M): 98%

SMILES: CSCC[C@H](NC(=O)c1ccc(CN(C)C(C)(C)Cc2ccccc2)cc1-c1ccccc1C)C(=O)O [Example 309]
% inhibition of farnesyltransferase (at 1 × 10^-6 M): 98%

SMILES: COC(=O)[C@H](CCSC)NC(=O)c1ccc(NC(=O)[C@@H]2CSCN2)cc1-c1ccccc1 [Example 164, [4-((R)-thiazolidin-4-ylcarbonyl)amino-2-phenylbenzoyl]methionine methyl ester hydrochloride]
inhibition at 1 µM (at 1 × 10^-6 M): 92%

SMILES: CSCC[C@H](NC(=O)c1ccc(COCc2cnc(-c3ccccc3Cl)o2)cc1-c1ccccc1C)C(=O)[O-].[Li+] [Example 892]
% inhibition of farnesyltransferase (at 1 × 10^-8 M): 59%

SMILES: CSCC[C@H](NC(=O)c1ccc(COC2CCN(C(=O)OC(C)(C)C)CC2)cc1-c1ccccc1C)C(=O)[O-].[Li+] [Example 808]
% inhibition of farnesyltransferase (at 1 × 10^-6 M): 88%

SMILES: CSCC[C@H](NC(=O)c1ccc(COCCc2ccccc2Cl)cc1-c1ccccc1C)C(=O)[O-].[Li+] [Example 588]
% inhibition of farnesyltransferase (at 1 × 10^-8 M): 68%

SMILES: CSCC[C@H](NC(=O)c1ccc(COCCc2ccc(-c3ccc(Cl)cc3)o2)cc1-c1ccccc1C)C(=O)[O-].[Li+] [Example 536]
% inhibition of farnesyltransferase (at 1 × 10^-7 M): 79%

SMILES: CSCC[C@H](NC(=O)c1ccc(COCc2ccc(-c3ccc(C(F)(F)F)cc3)o2)cc1-c1ccccc1C)C(=O)[O-].[Li+] [Example 445]
% inhibition of farnesyltransferase (at 1 × 10^-7 M): 94%

SMILES: CSCC[C@H](NC(=O)c1ccc(COC2(c3ccccc3)CCN(C(=O)OC(C)(C)C)CC2)cc1-c1ccccc1C)C(=O)[O-].[Li+] [Example 816]
% inhibition of farnesyltransferase (at 1 × 10^-6 M): 87%

SMILES: CSCC[C@H](NC(=O)c1ccc(CN(Cc2ccccc2)Cc2cncs2)cc1-c1ccccc1C)C(=O)O [Example 549, N-[4-N-benzyl-N-(thiazol-5-ylmethyl)aminomethyl-2-(2-methylphenyl)benzoyl]methionine]
inhibition at 0.1 µM (at 1 × 10^-7 M): 98%

SMILES: CSCC[C@H](NC(=O)c1ccc(COCCCCC2CCCCC2)cc1-c1ccccc1C)C(=O)O [Example 600]
% inhibition of farnesyltransferase (at 1 × 10^-7 M): 93%

Results, then the compound that gave them:

inhibition at 1 µM (at 1 × 10^-6 M): 86%
SMILES: CSCC[C@H](NC(=O)c1ccc(CN(CCC#N)Cc2ccccc2)cc1-c1ccccc1)C(=O)O [Example 649]

inhibition at 1 µM (at 1 × 10^-6 M): 69%
SMILES: CSCC[C@H](NC(=O)c1ccc(CN[C@@H](CC2CCCCC2)[C@@H](O)[C@@H](O)CC(C)C)cc1-c1ccccc1)C(=O)O [Example 716]

inhibition at 1 µM (at 1 × 10^-6 M): 68%
SMILES: COc1ccccc1CNCc1ccc(C(=O)N[C@@H](CCSC)C(=O)O)c(-c2ccccc2)c1 [Example 650]

% inhibition of farnesyltransferase (at 1 × 10^-7 M): 68%
SMILES: CSCC[C@H](NC(=O)c1ccc(CSc2ncnc3[nH]cnc23)cc1-c1ccccc1C)C(=O)O [Example 747]

% inhibition of farnesyltransferase (at 1 × 10^-7 M): 90%
SMILES: CSCC[C@H](NC(=O)c1ccc(CN2CCC[C@@H]2COCc2ccccc2)cc1-c1ccccc1C)C(=O)O [Example 993]

inhibition at 1 µM (at 1 × 10^-6 M): 69%
SMILES: CSCC[C@H](NC(=O)c1ccc(CNCc2ccccc2)cc1-c1ccccc1)C(=O)O [Example 936, N-[4-(N-benzylaminomethyl)-2-phenylbenzoyl]methionine hydrochloride salt]

inhibition at 0.01 µM (at 1 × 10^-8 M): 87%
SMILES: CSCC[C@H](NC(=O)c1ccc(CN(Cc2ccccc2)c2ccc(Cl)cc2)cc1-c1ccccc1C)C(=O)O [Example 848, N-[4-N-(N-benzyl-N-(4-chlorophenyl)aminomethyl)-2-(2-methylphenyl)benzoyl]methionine lithium salt]

inhibition at 10 µM: 67%
SMILES: CSCC[C@H](NC(=O)c1ccc(CN[C@H](CC2CCCCC2)[C@H](O)[C@H](O)CC(C)C)cc1-c1ccccc1)C(=O)O [Example 715]

% inhibition of farnesyltransferase (at 1 × 10^-7 M): 51%
SMILES: CSCC[C@H](NC(=O)c1ccc(CSc2nc(C)cc(C)n2)cc1-c1ccccc1C)C(=O)O [Example 743]

% inhibition of farnesyltransferase (at 1 × 10^-6 M): 90%
SMILES: CSCC[C@H](NC(=O)c1ccc(CN2CCC[C@H]2COCc2ccccc2)cc1-c1ccccc1C)C(=O)O [Example 824]

inhibition at 0.1 µM (at 1 × 10^-7 M): 75%
SMILES: CCSC[C@H](CC1CCCCC1)N(Cc1ccc(C(=O)N[C@@H](CCSC)C(=O)O)c(-c2ccccc2C)c1)C(=O)OC(C)(C)C [Example 948, N-[4-N-t-Butyloxycarbonyl-N-(3-cyclohexyl-1-ethylthiopropan-2-yl)aminomethyl-2-(2-methylphenyl)benzoyl]methionine]

inhibition at 1 µM (at 1 × 10^-6 M): 54%
SMILES: CSCC[C@H](NC(=O)c1ccc(CNc2ccccc2C(N)=O)cc1-c1ccccc1)C(=O)O [Example 644]

inhibition at 1 µM (at 1 × 10^-6 M): 58%
SMILES: CCOC(=O)c1ccc(NCc2ccc(C(=O)N[C@@H](CCSC)C(=O)O)c(-c3ccccc3)c2)cc1 [Example 646]

inhibition at 10 µM: 67%
SMILES: CSCC[C@H](NC(=O)c1ccc(CNc2ccc(C)c(C)c2)cc1-c1ccccc1)C(=O)O [Example 704]

inhibition at 0.01 µM (at 1 × 10^-8 M): 84%
SMILES: CSCC[C@H](NC(=O)c1ccc(CN(CCC2CCCCC2)C(=O)c2ccccc2)cc1-c1ccccc1C)C(=O)O [Example 762, N-[4-N-Benzoyl-N-2-cyclohexylethylaminomethyl-2-(2-methylphenyl)benzoyl]methionine lithium salt]

inhibition at 0.1 µM (at 1 × 10^-7 M): 56%
SMILES: CSCC[C@H](NC(=O)c1ccc(NC(=O)CN)cc1-c1ccccc1)C(=O)O [Example 748]

inhibition at 1 µM (at 1 × 10^-6 M): 40%
SMILES: CSCC[C@H](NC(=O)c1ccc(CNc2ccc(-c3nc4ccccc4s3)cc2)cc1-c1ccccc1)C(=O)O [Example 703]

inhibition at 0.1 µM (at 1 × 10^-7 M): 91%
SMILES: CSCC[C@H](NC(=O)c1ccc(CN(Cc2ccc(Cl)cc2)c2ccccc2)cc1-c1ccccc1C)C(=O)O [Example 781, N-[4-N-(N-phenyl-N-(4-chlorobenzyl)aminomethyl)-2-(2-methylphenyl)benzoyl]methionine lithium salt]

inhibition at 10 µM: 64%
SMILES: CSCC[C@H](NC(=O)c1ccc(CNc2ccc(Oc3ccccc3)cc2)cc1-c1ccccc1)C(=O)O [Example 701]

% inhibition of farnesyltransferase (at 1 × 10^-7 M): 92%
SMILES: CSCC[C@H](NC(=O)c1ccc(COCCCCc2ccccc2)cc1-c1ccccc1C)C(=O)O [Example 601]

inhibition at 1 µM (at 1 × 10^-6 M): 37%
SMILES: CSCC[C@H](NC(=O)c1ccc(CNc2cccc(I)c2)cc1-c1ccccc1)C(=O)O [Example 677]

inhibition at 1 µM (at 1 × 10^-6 M): 87%
SMILES: COC(=O)c1cscc1NCc1ccc(C(=O)N[C@@H](CCSC)C(=O)O)c(-c2ccccc2C)c1 [Example 724]

% inhibition of farnesyltransferase (at 1 × 10^-6 M): 88%
SMILES: CSCC[C@H](NC(=O)c1ccc(CN2CCCC(OCc3ccccc3)C2)cc1-c1ccccc1C)C(=O)O (stereo partly shown) [Example 989]

inhibition at 10 µM: 73%
SMILES: CSCC[C@H](NC(=O)c1ccc(CNc2cccc(OC(F)(F)F)c2)cc1-c1ccccc1)C(=O)O [Example 678]
